This note sets out measurements from PubChem BioAssay AID1259407 (Chemical Carcinogenesis Research Information System (CCRIS), 2018).

Calls of active or inactive are those of the source. No rule for the calls is given here.

This data set concerns CCRIS mutagenicity, Ames/micronucleus/aberration tests. Nature of the data set: CCRIS mutagenicity studies.
Where [1] appears, read: Test System: AMES SALMONELLA TYPHIMURIUM, Strain/Indicator: TA100, Metabolic Activation: NONE, Method: PREINCUBATION
Setting [2] is: Test System: AMES SALMONELLA TYPHIMURIUM, Strain/Indicator: TA98, Metabolic Activation: NONE, Method: PREINCUBATION
Where [3] appears, read: Test System: AMES SALMONELLA TYPHIMURIUM, Strain/Indicator: TA1535, Metabolic Activation: NONE, Method: PREINCUBATION

Take `CC(C)c1cc(N)c([N+](=O)[O-])cc1N`: the mutagenic call is “inactive; negative” (Test System: AMES SALMONELLA TYPHIMURIUM, Strain/Indicator: TA98, Metabolic Activation: NONE, Method: STANDARD PLATE); “active; positive” (Test System: AMES SALMONELLA TYPHIMURIUM, Strain/Indicator: TA98, Metabolic Activation: RAT, LIVER, S-9, AROCLOR 1254, Method: STANDARD PLATE); “inactive; negative” (Test System: AMES SALMONELLA TYPHIMURIUM, Strain/Indicator: TA100, Metabolic Activation: NONE, Method: STANDARD PLATE); “inactive; negative” (Test System: AMES SALMONELLA TYPHIMURIUM, Strain/Indicator: TA100, Metabolic Activation: RAT, LIVER, S-9, AROCLOR 1254, Method: STANDARD PLATE); “inactive; negative” (Test System: AMES SALMONELLA TYPHIMURIUM, Strain/Indicator: TA1535, Metabolic Activation: NONE, Method: STANDARD PLATE); “inactive; negative” (Test System: AMES SALMONELLA TYPHIMURIUM, Strain/Indicator: TA1535, Metabolic Activation: RAT, LIVER, S-9, AROCLOR 1254, Method: STANDARD PLATE). Moreover, the mutagenic call is “inactive; negative” (Test System: AMES SALMONELLA TYPHIMURIUM, Strain/Indicator: TA1537, Metabolic Activation: NONE, Method: STANDARD PLATE); “inactive; negative” (Test System: AMES SALMONELLA TYPHIMURIUM, Strain/Indicator: TA1537, Metabolic Activation: RAT, LIVER, S-9, AROCLOR 1254, Method: STANDARD PLATE); “inactive; negative” (Test System: AMES SALMONELLA TYPHIMURIUM, Strain/Indicator: TA1538, Metabolic Activation: NONE, Method: STANDARD PLATE); “active; positive” (Test System: AMES SALMONELLA TYPHIMURIUM, Strain/Indicator: TA1538, Metabolic Activation: RAT, LIVER, S-9, AROCLOR 1254, Method: STANDARD PLATE).

For the molecule `CN(C)c1ccc(/C=C/C=O)cc1`, the mutagenic call is “inactive; negative” under setting [1] and “inactive; negative” (Test System: AMES SALMONELLA TYPHIMURIUM, Strain/Indicator: TA100, Metabolic Activation: RAT, LIVER, S-9, AROCLOR 1254, Method: PREINCUBATION).

On to `Clc1nncc2cnccc12`, for which the mutagenic call by setting is: under setting [2], “inactive; negative”; (Test System: AMES SALMONELLA TYPHIMURIUM, Strain/Indicator: TA98, Metabolic Activation: RAT, LIVER, S-9, PCB, Method: PREINCUBATION) “inactive; negative”; under setting [1], “inactive; negative”; (Test System: AMES SALMONELLA TYPHIMURIUM, Strain/Indicator: TA100, Metabolic Activation: RAT, LIVER, S-9, PCB, Method: PREINCUBATION) “inactive; negative”.

On to `Cc1c2c(c(CO)c3ccc4ccccc4c13)[C@H](O)[C@@H](O)C=C2`, for which the mutagenic call is, setting by setting: (Test System: CHINESE HAMSTER V-79, Strain/Indicator: V-79/6-THIOGUANINE, Metabolic Activation: CELL-MEDIATED, Method: STANDARD PLATE) “active; positive”; (Test System: CHINESE HAMSTER V-79, Strain/Indicator: V-79/OUABAIN, Metabolic Activation: CELL-MEDIATED, Method: STANDARD PLATE) “active; positive”.

In the case of `Nc1nc(F)nc2c1ncn2[C@@H]1O[C@H](CO)[C@@H](O)[C@@H]1O`, the mutagenic call (Test System: CHINESE HAMSTER OVARY, Strain/Indicator: CHO/6-THIOGUANINE, Metabolic Activation: NONE) was “active; positive”.

For the molecule `O=C1c2c(Br)c(Br)c(Br)c(Br)c2C(=O)N1CCN1C(=O)c2c(Br)c(Br)c(Br)c(Br)c2C1=O`, the mutagenic call reads like this: (Test System: AMES SALMONELLA TYPHIMURIUM, Strain/Indicator: TA98, Metabolic Activation: HAMSTER, LIVER, S-9, AROCLOR 1254 (10%), Method: PREINCUBATION) “inactive; negative”; under setting [2], “inactive; negative”; (Test System: AMES SALMONELLA TYPHIMURIUM, Strain/Indicator: TA98, Metabolic Activation: RAT, LIVER, S-9, AROCLOR 1254 (10%), Method: PREINCUBATION) “inactive; negative”; (Test System: AMES SALMONELLA TYPHIMURIUM, Strain/Indicator: TA100, Metabolic Activation: HAMSTER, LIVER, S-9, AROCLOR 1254 (10%), Method: PREINCUBATION) “inactive; negative”; under setting [1], “inactive; negative”; (Test System: AMES SALMONELLA TYPHIMURIUM, Strain/Indicator: TA100, Metabolic Activation: RAT, LIVER, S-9, AROCLOR 1254 (10%), Method: PREINCUBATION) “inactive; negative”. Besides, the mutagenic call is “inactive; negative” (Test System: AMES SALMONELLA TYPHIMURIUM, Strain/Indicator: TA1535, Metabolic Activation: HAMSTER, LIVER, S-9, AROCLOR 1254 (10%), Method: PREINCUBATION); “inactive; negative” under setting [3]; “inactive; negative” (Test System: AMES SALMONELLA TYPHIMURIUM, Strain/Indicator: TA1535, Metabolic Activation: RAT, LIVER, S-9, AROCLOR 1254 (10%), Method: PREINCUBATION); “inactive; negative” (Test System: AMES SALMONELLA TYPHIMURIUM, Strain/Indicator: TA1537, Metabolic Activation: HAMSTER, LIVER, S-9, AROCLOR 1254 (10%), Method: PREINCUBATION); “inactive; negative” (Test System: AMES SALMONELLA TYPHIMURIUM, Strain/Indicator: TA1537, Metabolic Activation: NONE, Method: PREINCUBATION); “inactive; negative” (Test System: AMES SALMONELLA TYPHIMURIUM, Strain/Indicator: TA1537, Metabolic Activation: RAT, LIVER, S-9, AROCLOR 1254 (10%), Method: PREINCUBATION).

Consider `CCCCN(CCCC(=O)O)N=O`, for which the mutagenic call was “active; positive” (End Point: IN VITRO MICRONUCLEUS, Test System: CHL/IU CELLS, Metabolic Activation: NONE); “inactive; negative” (Test System: AMES SALMONELLA TYPHIMURIUM, Strain/Indicator: TA100, Metabolic Activation: BOVINE, URINARY BLADDER, S-9, Method: PREINCUBATION); “inactive; negative” (Test System: AMES SALMONELLA TYPHIMURIUM, Strain/Indicator: TA100, Metabolic Activation: PIG, URINARY BLADDER, S-9, Method: PREINCUBATION); “inactive; negative” (Test System: AMES SALMONELLA TYPHIMURIUM, Strain/Indicator: TA100, Metabolic Activation: RAT, LIVER, MICROSOMES, SODIUM PHENOBARBITONE, Method: PREINCUBATION); “inactive; negative” (Test System: AMES SALMONELLA TYPHIMURIUM, Strain/Indicator: TA100, Metabolic Activation: RAT, LIVER, S-9, AROCLOR, Method: PREINCUBATION); “inactive; negative” under setting [3]. The mutagenic call was “inactive; negative” (Test System: AMES SALMONELLA TYPHIMURIUM, Strain/Indicator: TA1535, Metabolic Activation: RAT, LIVER, MICROSOMES, SODIUM PHENOBARBITONE, Method: PREINCUBATION); “inactive; negative” (Test System: AMES SALMONELLA TYPHIMURIUM, Strain/Indicator: TA1535, Metabolic Activation: RAT, LIVER, S-9, AROCLOR, Method: PREINCUBATION); “active; positive” (Test System: AMES SALMONELLA TYPHIMURIUM, Strain/Indicator: TA1535, Metabolic Activation: RAT, LIVER, S-9, KC500 OR PHENOBARBITAL, Method: LIQUID SUSPENSION).
